# Columns and labels:
# HeLa = assay: Transfection efficiency with Luciferase-mRNA (SecNLuc), Nano-Glo assay; type: cell-based; details: 24 hours, luminescence (Nano-Glo); for Transfection 10 ng mRNA: 10 ng SecNLuc mRNA/well; for Transfection 50 ng mRNA: 50 ng SecNLuc mRNA/well; for Transfection 100 ng mRNA: 100 ng SecNLuc mRNA/well
# Procedure: • 1. Prepare mRNA solution by adding 100 ng mRNA (SecNLuc, #P009024, RiboPro) to 5 µl Opti-MEM • multiply by number of wells, include different concentrations and add 10% extra • a standard set-up we use is 100 ng - 50 ng - 10 ng mRNA/well in triplicate, which would need […] mRNA (includes 10% extra)
# • 2. (If applicable) Prepare different concentrations in Opti-MEM (for instance 100/50/10 ng). • 3. Add 10 µl to each well and mix carefully by pipetting. • 4. Mix by swirling the plate horizontally at modest speed. Reverse in direction 3 times. • 5. Incubate for 24 hours (incubator).
# This protocol is applied to measure luciferase activity for secreted NanoLuc and is based on the protocol by Promega (Nano-Glo® Luciferase Assay System #N1110-1150). The protocol is designed for a 384-wells plate, but volumes can be changed accordingly for other plates.
# • 1. Plate cells (HeLa) in 96-well plate, grow until 80% confluent and transfect with SecNanoLuc mRNA and incubate for the desired period (24h). • 2. After incubation, the translated protein is accumulated in the medium. Transfer medium to a new plate or tubes . • 3. Transfer 12 µl of each sample to a black-walled, clear-bottom 384-well plate Black-walled plates are important to prevent shine-through of luminescence from other wells; alternatively, multiple wells between samples can be left empty. • 4. Set-up plate reader • 5. Prepare the desired amount of Nano-Gio® Luciferase Assay Reagent by combining one volume of Nano-Glo® Luciferase Assay Substrate with 50 volumes of Nano-Glo® Luciferase Assay Buffer: • a. composition: 100 mM MES pH 6; 1 mM EDTA; 0.5% […]; 150 mM KCl; 1 mM DTT; 35 mM Thiourea; • b. briefly spin tubes containing substrate in a microcentrifuge before use. • 6. Add and mix (by pipetting) 12 µl Nano-Glo® Luciferase Assay Reagent per well • Wait approximately 3 minutes before measuring luminescence. The luminescence intensity will decay gradually, with a signal half-life of approximately 120 minutes at room temperature. • 7. Measure luminescence in plate reader using standard protocol luciferase (this includes mixing sample in plate reader)
# [1] = Size, PDI and Zeta potential of LNPs by dynamic light scattering; type: physicochemical; details: LNP formulated with tested lipid, diluted in 1x PBS pH 7.4; for Size: DOTAP, DOPE, Resveratrol, DSPE-PEG and mRNA, dialyzed; for Size / PDI: DLS
# Procedure: • 1. If needed, prepare stock solutions by solving known amounts of lipid powder into an appropriate solvent. The recommended solvent is ethanol and the recommended concentration is typically in the range 10-50 mM. Higher concentrations are preferred to allow flexibility on mRNA-LNP concentration. • 2. Remove the lipid stock solutions from the -20°C freezer. For long-term storage, -80°C is used. • 3. Check the vials for precipitation, DOPE (CAS# 4004-05-1) (20 mM) and DSPE-PEG (CAS# 474922-26-4) (5mM) may need a 5-30 minute incubation step at 37°C with intermittent vortexing to resuspend all contents. […] As a last resort, lipids may be heated to 50°C to resuspend, time should be kept as short as possible to prevent oxidation or other modifying or degradative processes. • 4. Mix the lipids by vortexing for 2 minutes. • 5. […] Cooling the solution prevent excessive evaporation of ethanol or similar solvents upon opening. • 6. Meanwhile, thaw the RNA samples, including the latest SecNLuc control, by inserting the frozen tube in a room temperature aluminium block. • 7. Prepare for each LNP-formulation with identical mRNA component, an RNA master mix according to Table 1 below in a fresh tube. Use of a master mix allows more precise comparison of lipid formulations relative to each other. Split the master mix over a number of fresh tubes equal to the number of samples + controls. Each tube contains 375 µl of mRNA in 10 mM Citrate pH 4.0. • 8. Prepare for each LNP formulation with identical lipid composition a Lipid master mix according to Table 1 below in a fresh tube, exclude the lipid of interest. Use of a master mix allows more precise comparison of the novel ionizable lipid relative to each other. Split the master mix over a number of fresh tubes equal to the number of samples + controls. Each tube contains 65.5 µl of lipid master mix. • 9. Add the ionizable lipid of interest to the equally divide lipid master mix. Mix well by pipetting up and down. Label the tube according to the ionizable lipid used. • 10. Power on the L1 FM (L1 Formulation Machine uses 2 high-speed syringe pumps to mix lipids in organic solvents with mRNA in acidic aqeuous solution to generate well-defined LNPs. The microfluidic mixing chip involves a dean-type structure performing the high-efficiency mixing at a total flow rate (TFR) of around 12ml/min at a 3:1 mixing ratio) and allow it to do a calibration of motor positions. Table 1: Lipid formulation solution
# • 18. Fill a fresh syringe (C) through a blunt 18G stainless steel needle with the previously prepared RNA mixture of step 6. The volume should be approximately 85% of total formulation volume + 25 µl (dead-volume). Make sure to remove all air bubbles by tapping. • 19. Fill a fresh syringe (D) through a blunt 18G stainless steel needle with the Lipid master mix. The volume should be approximately […] of total formulation volume + 25 µl (dead-volume). Again, Make sure to remove all bubbles. • 20. Attach the syringes in the correct orientation, […] • 21. Load the 'Receiving station' with appropriate sized collection containers (2 ml Eppendorf tubes). • 22. Press the microfluidic chip to the back of the machine with your thumb and hold, press the 'Button 1' (40 µg). The L1 FM pushes the total volume from the syringes in a perfect 3:1 (mRNA aqueous: lipid in EtOH) ratio through the microfluidic mixer chip with a total flow-rate of […] (Total flow rate (TFR)). • 23. Remove the sample tube from the 'Receiving station' and label the tube accordingly. • 24. Reset the machine to prepare with the next formulation.
# • 25. Transfer the individual formulations to 100 kda MWCO, SpectraPor Biotech dialysis tubing, and close with designated clamps. • 26. Submerge the dialysis bags in beakers filled with 1x Phosphate-buffered saline (PBS buffer, pH 7.4, Gibco cat# 202212-019), stir at 230 RPM at room temperature. • 27. […]
Size [1],Zeta potential [1],PDI [1],Compound,Transfection 10 ng mRNA (HeLa),Transfection 50 ng mRNA (HeLa),Transfection 100 ng mRNA (HeLa)
"131,9 nm","-12,32 mV","0,007","CCCCCCCCC(CCCCCC)C(=O)OCCCCCCN(CCCCO)CCCCCCOC(=O)C(CCCCCC)CCCCCCCC (stereo not drawn) [ALC-0315 ref., reference compound]","3,21E+06",1.47E+07,"1,04E+07"
"226,7 nm","-10,74 mV","0,223","CCCCCCCCCCSC(CCCC)C(=O)OCCCCCCN(CCCCO)CCCCCCOC(=O)C(CCCC)SCCCCCCCCCC (stereo not drawn) [Example 1, ((4-hydroxybutyl)azanediyl)bis(hexane-6,1-diyl) bis(2-(decylthio)hexanoate)]","3,81E+06","1,83E+07","1,69E+07"
"188,2 nm","-11,48 mV","0,136","CCCCCCCCC(SCCCCC)C(=O)OCCCCCCN(CCCCO)CCCCCCOC(=O)C(CCCCCCCC)SCCCCC (stereo not drawn) [Example 2, ((4-hydroxybutyl)azanediyl)bis(hexane-6,1-diyl) bis(2-(pentylthio)decanoate)]","2,40E+06","1,60E+07","1,39E+07"
"185,7 nm","-9,667 mV","0,122","CCCCCCCCCCSC(CCCC)C(=O)OCCCCCCCCN(CCCCO)CCCCCCCCOC(=O)C(CCCC)SCCCCCCCCCC (stereo not drawn) [Example 3, ((4-hydroxybutyl)azanediyl)bis(octane-8,1-diyl) bis(2-(decylthio)hexanoate)]","9,69E+05","1,02E+07","1,37E+07"
"149,7 nm","-12,66 mV","0,071","CCCCCCCCCCSC(CCCC)C(=O)OCCCCCCN(CCO)CCCCCCOC(=O)C(CCCC)SCCCCCCCCCC (stereo not drawn) [Example 4, ((2-hydroxyethyl)azanediyl)bis(hexane-6,1-diyl) bis(2-(decylthio)hexanoate)]","2,53E+06","1,23E+07","8,17E+06"
"291,8 nm","-9,117 mV","0,169","CCCCCCCCCCSC(CCCC)C(=O)OCCCCCCN(CCCCCCOC(=O)C(CCCC)SCCCCCCCCCC)CCC1CCCN1C (stereo not drawn) [Example 5, ((2-(1-methylpyrrolidin-2-yl)ethyl)azanediyl)bis(hexane-6,1-diyl) bis(2-(decylthio)hexanoate)]","4,17E+05","3,34E+06","6,52E+06"
"126,0 nm","-11,48 mV","0,013","CCCCCCCCC(SCCCCCCC)C(=O)OCCCCCCN(CCCCO)CCCCCCOC(=O)C(CCCCCCCC)SCCCCCCC (stereo not drawn) [Example 6, ((4-hydroxybutyl)azanediyl)bis(hexane-6,1-diyl) bis(2-(heptylthio)decanoate)]","3,47E+06","1,83E+07","2,52E+07"
"152,7 nm","-15,85 mV","0,022","CCCCCCCCCCSC(CCCCCCCC)C(=O)OCCCCCCN(CCCCO)CCCCCCOC(=O)C(CCCCCCCC)SCCCCCCCCCC (stereo not drawn) [Example 7, ((4-hydroxybutyl)azanediyl)bis(hexane-6,1-diyl) bis(2-(decylthio)decanoate)]","1,62E+06","1,47E+07","2,01E+07"
"153,5 nm","-14,32 mV","0,038","CCCCCCCCCCSC(CCCCCC)C(=O)OCCCCCCN(CCCCO)CCCCCCOC(=O)C(CCCCCC)SCCCCCCCCCC (stereo not drawn) [Example 8, ((4-hydroxybutyl)azanediyl)bis(hexane-6,1-diyl) bis(2-(decylthio)octanoate)]","2,80E+06","1,36E+07","1,11E+07"
"167,3 nm","-13,37 mV","0,144","CCCCCCCSC(CCCCCC)C(=O)OCCCCCCN(CCCCO)CCCCCCOC(=O)C(CCCCCC)SCCCCCCC (stereo not drawn) [Example 9, ((4-hydroxybutyl)azanediyl)bis(hexane-6,1-diyl) bis(2-(heptylthio)octanoate)]","2,79E+06","1,36E+07","1,43E+07"
"203,9 nm","-9,983 mV","0,014","CCCCCCCCCCCCCCSCC(=O)OCCCCCCN(CCCCO)CCCCCCOC(=O)CSCCCCCCCCCCCCCC [Example 10, ((4-hydroxybutyl)azanediyl)bis(hexane-6,1-diyl) bis(2-(tetradecylthio)acetate)]","2,92E+05","3,57E+06","1,10E+07"
